Reference: article PMC10098121, “Amphipathic barbiturates as marine product mimics with cytolytic and immunogenic effects on head and neck squamous cell carcinoma cell lines” (Frontiers in Pharmacology, 2023)

Tests used:
Assay type in all cases: cell-based, human
[1] = test system: cell surface calreticulin on HSC-3 cells; test: Flow cytometric detection of cell surface calreticulin; settings: HSC-3, 24 h; cisplatin 50 µM, MPMs 5-20 µM; vs untreated
Description: This procedure was based on a published method ([Liu et al., 2020]), but was performed with some modifications. Briefly, HSC-3 and UT-SCC-24A cells were seeded, 300,000 cells/well, in 6-well plates and left to adhere overnight. The media was then removed and replaced by 2 ml complete DMEM/F-12 containing 5, 7.5, 10 or 20 µM of MPM-2:0, MPM-6:0, MPM-3:2 or MPM-4:2, or 50 µM cisplatin. Some cells were left untreated. The cells were then incubated for 24 h. Next, the cell supernatants were collected before the cells were trypsinized and spun down with the supernatants. The cells were then washed in PBS before being incubated with the viability dye Zombie Violet (#423114, BioLegend, San Diego, CA, United States) diluted 1:500 in PBS for 20 min. Next, the cells were incubated with an anti-calreticulin antibody (#ab2907, Abcam) diluted 1:100 in FACS buffer (2%BSA in PBS) for 30 min. The cells were then fixed in 4% formaldehyde for 15 min and washed twice in FACS buffer before being incubated with the secondary antibody (#A11034, Thermo Fisher Scientific) diluted 1:250 in FACS buffer for 30 min. The cells were washed in FACS buffer and analyzed on a LSR Fortessa (BD Biosciences) within 1 week. Analyses were performed in FlowJo™ v.10 (https://www.flowjo.com/).

[2] = test system: HSC-3 cells; test: Live cell apoptosis assay (caspase 3/7, proliferation); settings: HSC-3, 24 h; MPMs 5 or 10 µM, cisplatin 10 µM
Description: A black-walled 96-well plate (#6005182, PerkinElmer, Waltham, MA, United States) was coated with 50 µl myogel (0.5 mg/ml) per well. The next day, HSC-3 and UT-SCC-24A cells were stained with CellTrace Far Red (Invitrogen, Carlsbad, CA, USA) by resuspending 500,000 cells in 500 µl PBS and adding 0.5 µl of the dye before incubating the cells at 37°C for 20 min. Next, 2.5 ml of complete media was added to the cells, and they were incubated for another 5 min. The cells were then centrifuged and resuspended in complete media. The media remaining in the wells of the 96-well plate after myogel coating was removed and the cells were seeded with 1,000 cells/well in 100 µl of media. The cells were left to adhere overnight, and the following day, the media was replaced with 100 µl of media containing the Incucyte® caspase-3/7 green dye for apoptosis (Sartorius, Göttingen, Germany) (diluted 1:1,000), as well as 5 or 10 µM of the MPMs or 10 µM cisplatin. Control wells only contained media and the caspase-3/7 green dye. The plate was placed in the Incucyte S3 (Sartorius) and imaged at ×10 magnification every 2 hours for 24 h in total. Each condition had triplicate wells, and four images were taken per well. The experiment was conducted three times. The Incucyte software was used to analyze the area of red fluorescence (proliferation) and number of green and red objects (apoptotic cells).

[3] = test system: phosphorylated eIF2α in UT-SCC-24A cells; test: Western blot for phosphorylated eIF2α; settings: 24 h, cisplatin 50 µM, MPMs 5-20 µM
Description: (§1) HSC-3 and UT-SCC-24A cells were seeded, 300,000 cells/well, in 6-well plates and left to adhere overnight. The media was then removed and replaced by 2 ml complete DMEM/F-12 containing 5, 7.5, 10 or 20 µM of MPM-2:0, MPM-6:0, MPM-3:2 or MPM-4:2, or 50 µM cisplatin. Some cells were left untreated. The cells were then incubated for 24 h. Next, the cell supernatants were collected before the cells were trypsinized and spun down with the supernatants. The cells were then washed twice in ice-cold PBS before being resuspended in 100 µl RIPA buffer (25 mM Tris-HCl (pH 7,6), 150 mM NaCl, 0.1% SDS, 0.5% sodium deoxycholate, 1% Triton X-100) containing 1% protease inhibitor (SIGMAFASTTM, #S8830, Sigma-Aldrich) and incubated on a shaker for 30 min. Next, the samples were sonicated and then kept at −70°C before being used. The samples were kept on ice or at 4°C during the whole procedure. The samples were thawed on ice and the protein concentration was measured using the DC Protein Assay kit (#5000111, Bio-Rad Laboratories, Hercules, CA, United States). 8 μg of protein was taken from each sample and mixed with DTT (final concentration 50 mM) and 20% 5 × sample buffer (250 mM Tris-HCl pH 6.8, 10% SDS, 20% Glycerol, 0.01% Bromphenol Blue). […]

[4] = test system: phosphorylated eIF2α in HSC-3 cells; test: Western blot for phosphorylated eIF2α; settings: HSC-3, 24 h; cisplatin 50 µM, MPMs 5-20 µM
Description: as §1

SMILES: N.N.[Cl][Pt][Cl] [Cisplatin, cisplatin, reference compound]
- cell surface expression of calreticulin (in words) [1]: did not induce any cell surface expression of calreticulin
- activation of caspase 3/7 / apoptosis (in words) [2]: only induced apoptosis in a minority of HSC-3 cells
- proliferation (area of red fluorescence, in words) [2]: inhibited proliferation in HSC-3 cells
- phosphorylation of eIF2α (in words) [3]: induced high levels of phosphorylated eIF2α
- phosphorylation of eIF2α (in words) [4]: induced high levels of phosphorylated eIF2α
